Assay results published in patent US8222260B2, “Substituted 6-anilinopurine derivatives as inhibitors of cytokinin oxidase/dehydrogenase and preparations containing these derivatives” (Univerzita Palackego V Olomouci, priority 2007, dated 2012).

Tests used:
[1] = target: T1, recombinant AtCKX2 (Arabidopsis thaliana, UniProt Q9FUJ3); assay: Inhibition of cytokinin oxidase/dehydrogenase activity (PMS/MTT microtitre plate assay); type: biochemical; settings: 30 μM iP as substrate, pH 7.4, 37° C.; means of three replicates; read-out: IC50, inhibition of recombinant AtCKX2
T1 sequence (Q9FUJ3 23-501): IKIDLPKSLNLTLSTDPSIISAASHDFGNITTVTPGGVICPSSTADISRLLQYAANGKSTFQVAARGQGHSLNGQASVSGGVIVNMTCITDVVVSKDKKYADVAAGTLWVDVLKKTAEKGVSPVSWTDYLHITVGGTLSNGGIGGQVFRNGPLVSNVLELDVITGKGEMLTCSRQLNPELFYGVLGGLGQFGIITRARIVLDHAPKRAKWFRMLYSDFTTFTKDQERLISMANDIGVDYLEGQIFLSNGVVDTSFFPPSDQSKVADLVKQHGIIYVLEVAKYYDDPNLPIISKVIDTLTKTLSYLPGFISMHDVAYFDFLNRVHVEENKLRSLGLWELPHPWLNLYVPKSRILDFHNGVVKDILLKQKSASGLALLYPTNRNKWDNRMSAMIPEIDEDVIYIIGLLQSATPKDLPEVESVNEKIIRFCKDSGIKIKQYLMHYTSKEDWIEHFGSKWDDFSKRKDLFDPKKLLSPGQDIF
How it was run: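 Cell-free culture medium of S. cerevisiae 23344c expressing AtCKX2 was incubated with compound (3×10^−7–3×10^−4 M) and 30 μM iP in 0.1 M KH2PO4 pH 7.4 with 1 mM MTT/0.2 mM PMS, 30 min, 37 °C, dark. A578 was read after acetic-acid stop, minus no-iP blank. IC50 came from dose-response curves, mean of three replicates.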

[2] = target: T2, AHK3 (Arabidopsis thaliana, UniProt Q9C5U1); assay: Activation of cytokinin receptors (E. coli KMI001 beta-galactosidase reporter); type: cell-based; settings: 28 h incubation; n.a. means no activation
T2 sequence (Q9C5U1 1-1036): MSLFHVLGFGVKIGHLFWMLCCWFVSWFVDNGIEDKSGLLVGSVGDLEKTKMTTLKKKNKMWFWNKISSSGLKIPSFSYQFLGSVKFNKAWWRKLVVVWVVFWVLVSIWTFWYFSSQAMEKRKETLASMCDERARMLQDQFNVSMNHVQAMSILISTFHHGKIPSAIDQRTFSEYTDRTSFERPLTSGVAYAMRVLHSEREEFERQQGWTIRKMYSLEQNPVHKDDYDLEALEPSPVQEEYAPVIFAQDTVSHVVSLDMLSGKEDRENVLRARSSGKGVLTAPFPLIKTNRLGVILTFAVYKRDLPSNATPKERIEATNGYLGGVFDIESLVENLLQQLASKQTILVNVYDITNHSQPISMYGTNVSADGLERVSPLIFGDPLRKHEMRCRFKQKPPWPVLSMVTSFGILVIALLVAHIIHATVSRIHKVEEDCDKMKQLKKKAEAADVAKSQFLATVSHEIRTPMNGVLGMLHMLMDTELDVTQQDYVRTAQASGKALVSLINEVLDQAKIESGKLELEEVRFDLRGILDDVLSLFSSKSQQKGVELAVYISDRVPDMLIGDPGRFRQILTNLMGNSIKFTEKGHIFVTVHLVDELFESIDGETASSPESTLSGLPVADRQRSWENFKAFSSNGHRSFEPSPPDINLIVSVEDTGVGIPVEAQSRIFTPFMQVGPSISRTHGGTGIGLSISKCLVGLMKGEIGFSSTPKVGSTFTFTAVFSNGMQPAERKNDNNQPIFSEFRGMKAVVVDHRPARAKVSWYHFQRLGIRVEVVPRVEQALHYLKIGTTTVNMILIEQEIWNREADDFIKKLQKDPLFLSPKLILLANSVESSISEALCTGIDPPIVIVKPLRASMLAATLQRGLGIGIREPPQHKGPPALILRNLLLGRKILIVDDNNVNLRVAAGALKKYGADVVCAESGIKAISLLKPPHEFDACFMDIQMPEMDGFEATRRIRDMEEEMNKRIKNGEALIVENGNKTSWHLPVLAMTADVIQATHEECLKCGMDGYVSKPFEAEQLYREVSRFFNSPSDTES
How it was run: (§1)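 E. coli KMI001 carrying the receptor plasmid was grown in M9 + 0.1% casamino acids at 25 °C, diluted 1:600 and treated with compound (stock solutions 10^-7–5×10^-5 M). Supernatant β-galactosidase was read by 4-methylumbelliferyl galactoside hydrolysis (1 h, 37 °C, Na2CO3 stop). EC50 came from dose-response curves, triplicate means.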

[3] = target: CRE1/AHK4 (Arabidopsis thaliana, UniProt Q9C5U0); assay: as above; type: cell-based; settings: 17 h incubation; n.a. means no activation
Sequence of CRE1/AHK4 (Q9C5U0 whole entry): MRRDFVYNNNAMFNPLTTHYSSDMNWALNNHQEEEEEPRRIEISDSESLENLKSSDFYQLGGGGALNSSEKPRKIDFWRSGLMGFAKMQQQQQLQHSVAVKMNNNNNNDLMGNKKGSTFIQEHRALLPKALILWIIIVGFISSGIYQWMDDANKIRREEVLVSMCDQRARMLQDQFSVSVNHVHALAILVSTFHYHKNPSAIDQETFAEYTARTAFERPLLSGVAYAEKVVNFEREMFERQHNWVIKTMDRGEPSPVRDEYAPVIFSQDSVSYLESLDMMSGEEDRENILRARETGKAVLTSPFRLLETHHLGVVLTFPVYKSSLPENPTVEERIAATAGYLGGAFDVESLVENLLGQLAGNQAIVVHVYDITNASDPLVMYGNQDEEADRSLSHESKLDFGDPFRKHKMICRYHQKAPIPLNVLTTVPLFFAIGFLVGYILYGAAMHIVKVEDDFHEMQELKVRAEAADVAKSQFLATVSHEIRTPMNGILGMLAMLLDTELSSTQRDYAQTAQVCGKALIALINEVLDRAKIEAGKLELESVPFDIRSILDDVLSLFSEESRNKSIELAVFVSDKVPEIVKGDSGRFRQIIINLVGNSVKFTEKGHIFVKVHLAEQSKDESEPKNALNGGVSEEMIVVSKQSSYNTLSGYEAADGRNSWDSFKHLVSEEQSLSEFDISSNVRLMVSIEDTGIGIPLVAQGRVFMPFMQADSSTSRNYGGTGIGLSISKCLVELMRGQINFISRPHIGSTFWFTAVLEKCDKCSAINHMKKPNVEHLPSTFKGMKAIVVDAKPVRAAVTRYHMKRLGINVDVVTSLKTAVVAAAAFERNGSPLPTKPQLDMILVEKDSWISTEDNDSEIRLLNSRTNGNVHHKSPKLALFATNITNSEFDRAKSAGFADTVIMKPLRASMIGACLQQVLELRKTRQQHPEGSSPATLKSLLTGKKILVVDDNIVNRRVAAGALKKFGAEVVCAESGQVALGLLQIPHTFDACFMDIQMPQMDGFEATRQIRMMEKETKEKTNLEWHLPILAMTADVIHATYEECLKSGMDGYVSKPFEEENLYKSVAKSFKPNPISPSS
How it was run: as §1

Compound	IC50 [1] [µM]	EC50 [2] [µM]	EC50 [3] [µM]
Fc1cccc(Nc2nc(S)nc3[nH]cnc23)c1 [Compound 83]	22.6	> 50	–
Clc1ccc(Nc2nc(Cl)nc3[nH]cnc23)cc1 [Compound 4]	24.1	–	–
Nc1nc(Nc2cccc(Cl)c2)c2nc[nH]c2n1 [Compound 66]	25.6	43	–
Fc1nc(Nc2cccc(Cl)c2)c2nc[nH]c2n1 [Compound 42]	15.3	31.6	21
Nc1nc(Nc2cccc(O)c2)c2nc[nH]c2n1 [Compound 72]	–	7.7	> 50
Oc1cccc(Nc2nc(F)nc3[nH]cnc23)c1 [Compound 48]	11.8	15	49.6
Fc1nc(Nc2ccccc2)c2nc[nH]c2n1 [Compound 40]	–	19	46.2
Fc1cccc(Nc2nc(Cl)nc3nc[nH]c23)c1 [Compound 6, 2-Chloro-6-(3-fluoroanilino)purine]	12.2	–	–
Clc1nc(Nc2ccccc2)c2[nH]cnc2n1 [Compound 1, 2-Chloro-6-anilinopurine]	22.6	–	–

Next, values leading:

IC50 [1] [µM]	EC50 [2] [µM]	EC50 [3] [µM]	Compound
3.5	2.8	37.1	Oc1cccc(Nc2nc(Cl)nc3nc[nH]c23)c1 [Compound 9, 2-Chloro-6-(3-hydroxyanilino)purine]
0.4	22.7	43	COc1cccc(Nc2nc(F)nc3nc[nH]c23)c1 [Compound 51, 2-Fluoro-6-(3-methoxyanilino)purine]
6.3	20	7.5	Clc1cccc(Nc2nc(Cl)nc3nc[nH]c23)c1 [Compound 3, 2-Chloro-6-(3-chloroanilino)purine]
0.8	9.5	31.3	COc1cccc(Nc2nc(Cl)nc3nc[nH]c23)c1 [Compound 12, 2-Chloro-6-(3-methoxyanilino)purine]
